Results on three molecules are retold here after publication PMC11476959, “Structural Insights and Catalytic Mechanism of 3-Hydroxybutyryl-CoA Dehydrogenase from Faecalibacterium Prausnitzii A2-165” (International Journal of Molecular Sciences, 2024).

The target of assay [1] is 3-hydroxybutyryl-CoA dehydrogenase of Faecalibacterium prausnitzii A2-165 (Faecalibacterium prausnitzii A2-165). Kind of assay: SEC-MALS; 2.018 mg/mL A2HBD on Superdex 200 Increase, 20 mM Tris-HCl pH 8.0, 150 mM NaCl, 0.3 mL/min; main peak 92% of the scattered mass.
For assay [2], the target named is T1, 3-hydroxybutyryl-CoA dehydrogenase of A2-165 (A2HBD; A2-165 BHBD) (Faecalibacterium duncaniae, UniProt C7H5K9).
T1 construct: gene FAEPRAA2165_01580; full-length (Met1-Leu290 printed, 867 bp gene), C-terminal 6xHis kept, pET21a, E. coli BL21(DE3); hexamer in solution; N-terminus MKIGVI and C-terminus TPVDQ-LE(H6) from the printed primers; Leu290 probably comes from the XhoI site
Kind of assay: microscale thermophoresis. It counts as binding. On the technique in general: In MST a laser heats a spot of the sample, and binding alters the fluorescence response.

T1 sequence (C7H5K9 entry or part of it): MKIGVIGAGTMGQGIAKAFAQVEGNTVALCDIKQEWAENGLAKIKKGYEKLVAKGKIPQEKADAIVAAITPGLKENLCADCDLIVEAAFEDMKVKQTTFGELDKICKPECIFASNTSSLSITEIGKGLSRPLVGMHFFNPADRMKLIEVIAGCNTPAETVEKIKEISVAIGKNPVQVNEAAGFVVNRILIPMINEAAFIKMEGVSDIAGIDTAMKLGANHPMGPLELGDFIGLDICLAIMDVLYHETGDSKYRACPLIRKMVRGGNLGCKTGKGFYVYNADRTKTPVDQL

Turning to “3-hydroxybutyryl-CoA dehydrogenase of Faecalibacterium prausnitzii A2-165 (enzyme)”, in assay [1], the stoichiometry N (usually the number of molecules, sites or subunits per partner or assembly) came to 6.

For the molecule `NC(=O)c1ccc[n+]([C@@H]2O[C@H](COP(=O)(O)OP(=O)(O)OC[C@H]3O[C@@H](n4cnc5c(N)ncnc54)[C@H](O)[C@@H]3O)[C@@H](O)[C@H]2O)c1` [NAD^+], in assay [2], the Kd (usually the constant that tells how readily two partners part at equilibrium) was determined as 347 µM. Still for that read-out and setting: under `CC(=O)CC(=O)SCCNC(=O)CCNC(=O)[C@H](O)C(C)(C)COP(=O)(O)OP(=O)(O)OC[C@H]1O[C@@H](n2cnc3c(N)ncnc32)[C@H](O)[C@@H]1OP(=O)(O)O` [acetoacetyl-CoA] stands 23.9 µM.
